# Laboratory results from publication PMC10610379, “Epidrugs as Promising Tools to Eliminate Plasmodium falciparum Artemisinin-Resistant and Quiescent Parasites” (Pharmaceutics, 2023).
# Like-named read-outs stand apart in the source and are kept apart here.
# Legend:
# [1] = system: Plasmodium falciparum F32-ART (artemisinin-resistant strain); assay: Standard chemosensitivity assay (SYBR Green I), F32-ART; type: cell-based; conditions: for IC50: Plasmodium falciparum, read-out: Antiplasmodial Activity: IC50, F32-ART; for Selectivity Index CC50/IC50: ratio cytotoxicity (mammalian cell type of the CC50)/antiplasmodial activity on F32-ART
# Experimental: (§1) They differ by eight mutations in seven genes (PF3D7_0110400, PF3D7_1343700, PF3D7_0213400, PF3D7_1115700, PF3D7_1302100, PF3D7_1459600, PF3D7_1464500) among them the M476I mutation on the kelch13 gene. F32-ART and F32-TEM strains have RSA^0–3 h values up to 12% and less than 0.1%, respectively. […] Both strains were cultured, in the same conditions, according to the Trager and Jensen protocol with modifications. Briefly, parasites were cultivated in RPMI-1640 medium (Biowest) at 2% hematocrit in human red blood cells and 5% human serum (EFS, French Blood Bank) under 5% CO2 in a humid atmosphere at 37 °C.
# (§2) The antimalarial activities of the compounds were evaluated on both strains. […] Antimalarial activities were determined with the SYBR Green I method. Each drug concentration was tested in triplicate. The parasites were incubated with the drugs for 48 h. Plates were read on a BioTek FLX800 Microplate Fluorescence Reader (Bio-Tek instruments, Winooski, VT, USA) (λexcitation = 485 nm, λemission = 528 nm). Control parasite culture (i.e., RPMI with 0.5% DMSO) was referred to as 100% growth. IC50 and IC90 values were determined using GraphPad Prism version 7.05 (GraphPad Software, San Diego, CA, USA). Results were the mean of 3 independent experiments. When it is relevant, statistical significance between results obtained with both parasite strains was determined by a Mann–Whitney test using GraphPad Prism version 7.05.
# [2] = system: Plasmodium falciparum F32-TEM (artemisinin-sensitive twin line); assay: Standard chemosensitivity assay (SYBR Green I), F32-TEM; type: cell-based; conditions: Plasmodium falciparum, read-out: Antiplasmodial Activity: IC50, F32-TEM
# Experimental: as §1, §2
# monocytes = system: monocytes; design: method as in PMID 27091512; conditions: data from literature ref 47, read-out: Cytotoxicity: CC50 (monocytes); cited from earlier work
# [3] = system: ART-resistant parasites F32-ART at the quiescent stage; assay: Quiescent-stage Survival Assay (QSA), 48-h exposure; type: cell-based, Plasmodium falciparum
# Experimental: The sensitivity of the ART-resistant parasites F32-ART at the quiescent stage towards the different molecules was determined using the QSA (Quiescent-stage Survival Assay), as previously described.
# Epidrugs were tested at their IC90 values. In the present study, quiescence was induced using 3 µM of ART or 700 nM of DHA [28]. Thus, D-sorbitol synchronized ring-stage parasites at 3% parasitemia and 2% hematocrit (5 mL of culture per well in 6-well plates) were first exposed to 6 h of ART or DHA to induce quiescence and then to 48 h of the combination “ART or DHA + compound to be tested”. The combinations “ART 6 h/ART 48 h” or “DHA 6 h/DHA 48 h” were used as controls. The compounds were evaluated, in parallel, on proliferating parasites, i.e., without any pre-treatment. After drug exposure, parasite cultures were washed with 40 mL of RPMI-1640 medium and cultured in drug-free conditions supplemented with 10% human serum in new wells. The parasitemia for each condition was then microscopically monitored every 2 days. Culture media were renewed twice a week and 25 µL of fresh red blood cells were added once a week. Obtained data were used to perform Kaplan–Meier survival analyses considering censored data. The outcome was defined as the day when parasite cultures reached the initial parasitemia (3%) and data were considered as censored if no parasite recrudescence was observed during the 30-day experiment timeframe. When relevant, statistical significance between results obtained for the conditions “ART/ART” and “ART/ART + compound to be tested” or “DHA/DHA” and “DHA/DHA + compound to be tested” was determined by a Log Rank (Mantel Cox) test using GraphPad Prism version 7.05. For the best compounds targeting histones, in order to compare western blots data, modified QSAs were carried out by comparing “DHA 6 h/DHA 24 h” versus “DHA 6 h/DHA + compound to be tested 24 h”.
# H4IIErat = conditions: read-out: Cytotoxicity: CC50 (H4IIErat), data from literature ref 54; cited from earlier work
# [4] = Cytotoxicity evaluation by MTT assay; type: cell-based; conditions: monkey, Vero cells, * mean of 2 experiments
# Experimental: The cytotoxicity of all newly synthesized compounds was evaluated on the Vero cell lines (isolated from monkey kidney cells, gift from the Faculty of Pharmacy, Toulouse, France) by MTT assay according to Mosmann with slight modifications. Briefly, cells in MEM medium supplemented with 10% fetal calf serum, 2 mM L-glutamine, antibiotics (100 U/mL penicillin and 100 µg/mL streptomycin), and NEAA 1X, were seeded in 96-well plates. After a 24-h incubation at 37 °C and 5% CO2 in a humidified atmosphere, compounds were added with concentrations ranging from 5 nM to 50 μM in duplicate. […] The security index was calculated as the ratio of cytotoxicity/antiplasmodial activity.
# [5] = system: P. falciparum strains F32-ART and F32-TEM; assay: Standard chemosensitivity assay, both strains; type: cell-based; conditions: Plasmodium falciparum, F32, read-out: Antiplasmodial activity IC50
# Experimental: as §2
# NOMO1 = conditions: read-out: Cytotoxicity: CC50 (NOMO1), data from literature ref 51; cited from earlier work
# human mesenchymal stem = system: human mesenchymal stem; design: method as in PMID 30237855; conditions: data from literature ref 53, read-out: Cytotoxicity: CC50 (human mesenchymal stem); cited from earlier work
# [6] = F32-ART, 48 h incubation, SYBR Green I, mean ± SEM of 3 experiments (* mean of 2)
# [7] = F32-TEM, 48 h incubation, SYBR Green I, mean ± SEM of 3 experiments (* mean of 2)
SMILES,"IC50 [1, 6]",Selectivity Index CC50/IC50 [1],"IC50 [2, 7]",also measured
Cn1cc(/C=C/C(=O)c2cccc(F)c2)cc1/C=C/C(=O)NO [MC 1568],> 10 µM,<1,> 10 µM,CC50 (monocytes): 10 µM
Cc1cc(Nc2ccc(NC(=O)c3ccc(Nc4ccnc5ccccc45)cc3)cc2)nc(N)n1 [SGI-1027],0.063 ± 0.013 µM,>790,0.054 ± 0.022 µM,"Delay in parasite recrudescence time (difference between median recrudescence times), ART/ART + compound vs ART/ART ([3]; quiescence induced with ART 3 µM 6 h, then 48 h ART + compound at its IC90): 8 days; Delay in recrudescence time, DHA/DHA + compound vs DHA/DHA ([3]; quiescence induced with DHA 700 nM 6 h, then 48 h DHA + compound at its IC90): ≥ 6 days; CC50 (H4IIErat): > 50 µM"
Cc1ncsc1-c1ccc(CNC(=O)[C@@H]2C[C@@H](O)CN2C(=O)[C@@H](NC(=O)COCCOCCOCCNC(=O)C[C@@H]2N=C(c3ccc(Cl)cc3)c3c(sc(C)c3C)-n3c(C)nnc32)C(C)(C)C)cc1 [MZ1],1.7 µM,>30,1.3 µM,CC50 [4]: > 50 µM; IC50 [5]: 1.3 to 1.7 µM
CCCCCCCc1ccc(CCc2cccc(O)c2C(=O)O)cc1 [MG149],,,,"IC50 ([1]; F32, 48 h): > 10 µM; IC50 ([2]; F32, 48 h): > 10 µM; CC50 (NOMO1): 51 µM"
Clc1ccc(N/N=C(\c2ccccc2)c2ccccn2)nc1 [JIB-04],0.56 ± 0.08 µM,>18,0.94 ± 0.03 µM,CC50 (human mesenchymal stem): > 10 µM
